# Literature values in paper PMC11984905, “Chiral Switch of Gadopiclenol: New Standards in MRI Probes” (Advanced Science, 2025).
# Settings: 0.1 M Me4NCl, 25 °C; cited from earlier work
smiles,measurement,value
"O=C(O)CCC(C(=O)O)N1CCN(C(CCC(=O)O)C(=O)O)Cc2cccc(n2)CN(C(CCC(=O)O)C(=O)O)CC1 (racemic) [rac‐L1, 2,2’,2’’-[3,6,9,15-tetraazabicyclo[9.3.1]pentadeca-1(15),11,13-triene-3,6,9-triyl]tripentanedioic acid]",logK1^H,10.85
same,logK2^H,6.86
same,logK3^H,5.37
same,logK4^H,4.77
same,logK5^H,4.24
same,logK6^H,3.4
same,logK7^H,1.92
same,ΣlogKi^H,37.50
